Laboratory results as given in patent publication US20230321063A1, “COMPOSITIONS AND METHODS TO REDUCE NEUROINFLAMMATION” (Seattle Children's Hospital d/b/a Seattle Children's …, priority 2020, published 2023).
Entries after “also recorded” stand apart in the source; their conditions may differ.

What was measured:
[1] = tested on: Ndufs4(KO) mouse model of LS; assay: Survival studies and overall disease course in Ndufs4(KO) mice; format: in vivo
Protocol: Ndufs4(+/−) mice were bred to produce Ndufs4(KO) (Ndufs4(−/−)) offspring. Mice were weaned at 20-21 days of age. Ndufs4(KO) animals were housed with a minimum of one control littermate for warmth and stimulation. Mice were weighed, and health assessed, a minimum of 3 times per week, every other day (daily for IP injected mice, see herein). Where longitudinal blood point-of-care data was collected, this was performed during these health checks. Wetted chow in a dish on the bottom of each cage, and in-cage water bottles, were provided to all cages housing Ndufs4(KO) mice following the onset of disease so that the ability to find or reach food or water was not a limiting factor for survival.
Doses of each drug was based on published data for use in animals. […] Blood and tissue concentrations reached biologically relevant levels for each of the tested inhibitors.
Pharmacologic interventions and chow formulation. Standard mouse chow was ground to a power and mixed with drugs at the doses desired (see FIGS. 4A-4L). 300 mL of 1% agar melted in sterile water was added per kilogram of powdered chow and the mixture was pelleted and baked at 37° C. for 3-5 hours to dry. Pellets were then stored at 4° C. for short term (up to 90 days) or −20° C. for long-term (up to 6 months) storage. It was previously shown that this processing had no impact on animal health or survival (Johnson et al. Front Genet. 2015; 6:247). […]
To determine whether the benefits of mTOR inhibition in Ndufs4(KO) model result from disruption of PI3K mediated signaling, animals were treated from weaning (post-natal day 21, P21) with potent, orally available, isoform specific inhibitors of the catalytic subunits of PI3K: BYL719, GSK2636771, CAL-101, and IPI-549, inhibitors of p110α, p110β, p110δ, and p110γ, respectively.

Ndufs4(KO) mice [2] = assay: Rotarod assay; format: in vivo, mouse; details: latency to fall up to 10 min, 6 rpm
Protocol: (§1) Rotarod and rotarod seizures. Rotarod assays were performed using a Med Associates Inc. (Fairfax, VT) ENV-571M single lane rotarod with a black mat installed in the floor of the lane to reduce visibility of the bottom. Assays were performed by placing animals onto an already rotating rod and timing latency to fall, with a steady rotation speed set to 6 rpm (controlled by attached laptop and Med Associates software). The maximum time of each trial was 10 min, with the trial ending at that time if mice were still on the rotarod. For each assay, three trials were performed, with a minimum of 5 min between each assay. The best of the three trials was reported for the rotarod data. As detailed in the text and figure legends, rotarod was performed each 10 days of age from P30; mice in a given age group were the reported age +/−1 day.

Ndufs4(KO) mice [3] = assay: Rotarod induced seizures; format: in vivo, mouse
Protocol: as §1
Mice were monitored throughout each assay for seizure activity, and rotarod performance trials were ended if a seizure was observed. […]

[4] = tested on: control and Ndufs4(KO) mice; assay: Plasma ALT and AST enzymatic activity assays; format: in vivo, mouse; details: 300 mg/kg/day, both genotypes
Protocol: Plasma ALT and AST measures. Small volumes (5-10 μL) of blood were collected using tail-prick and heparinized microhematocrit tubes (Fisher Scientific cat. #22-362566), placed on ice in 15 mL sample tubes, then moved (by pipette) into 1.5 mL microcentrifuge tubes and stored at −80° C. until used for ALT and AST enzymatic assays. ALT and AST were quantified using colorimetric enzymatic activity assay kits (Sigma, cat. #'s MAK052 and MAK055, respectively) according to manufacturer recommendations. Absorbance was measured on a NanoDrop 1000 (ThermoScientific).

## FC(F)(F)c1ccc(CNc2ccc(Cc3c[nH]c4ncc(Cl)cc34)cn2)cn1 [pexidartinib, 5-[(5-chloro-1H-pyrrolo[2,3-b]pyridin-3-yl)methyl]-N-[[6-(trifluoromethyl)pyridin-3-yl]methyl]pyridin-2-amine]
[1]; 300 mg/kg/d, drug toxicity appears to limit lifespan
  lifespan of treated Ndufs4(KO) animals relative to treated control mice: live as long as treated control mice
[1]; Ndufs4(KO) mice
  impact on disease (overall) / disease or survival: dramatically attenuates disease
[1]; Ndufs4(KO) mice vs untreated
  survival: dramatically extended survival
[1]; Ndufs4(KO) mice, 300 mg/kg/day in chow
  extension of median survival: 300%
[1]; control animals on 300 mg/kg/d
  cause of death of control animals: died of unknown causes with no evident illness
[1]; each of 100-300 mg/kg/day, dose-dependent
  survival compared to untreated Ndufs4(KO) mice: statistically significant increase
[1]; majority of high dose animals
  overt signs of severe neurologic sequelae prior to death: did not show overt signs of severe neurologic sequelae prior to death
Ndufs4(KO) mice [2]
  performance on rotarod assay: rescued performance; also recorded: dose-dependent effect
Ndufs4(KO) mice [3]; Ndufs4(KO) mice at P30, rotarod assay
  time-to-seizure: markedly reduced
Ndufs4(KO) mice [3]; Ndufs4(KO) mice at P30, untreated 30%
  incidence of rotarod induced seizures: markedly reduced
[4]
  ALT level: significantly elevated
  AST level: significantly elevated
